Experimental data from publication PMC7927014, “Novel Small Molecule Hsp90/Cdc37 Interface Inhibitors Indirectly Target K-Ras-Signaling” (Cancers, 2021).

Columns and labels:
Hsp90/Cdc37 [1] = experiment: FIMM screening in split Renilla luciferase assay with hypomorphic NRL-Hsp90 construct, 20 μM; format: biochemical; details: for Average RLU (FIMM Screening-1): DMSO 50019
Description: (§1) In the second in silico screening of the FIMM database, we employed the four identified chemical scaffolds (Figure S2B) for the visual inspection of the FIMM compound library. […] All of the purchased compounds were validated in vitro at 20 μM using the split Renilla luciferase assay.
(§2) The Hsp90/Cdc37 split Renilla luciferase assay using the full length Hsp90 for the compound screening was described previously. […] After 48 h, the cells were trypsinized and washed with PBS. The harvested cells were lysed in 1 mL of the 1x lysis buffer provided in the Renilla Luciferase Reporter Assay System Kit from Promega (cat. E2820), and were incubated on ice for 10 min. The cell lysates were then cleared by centrifugation at 13,000× g for 1 min. […] After this, the screening/test compounds or DMSO—as indicated—were added to each well. In total, 5 µL NRL-Hsp90- or NRL-N-Hsp90-lysate was added to each well, one row at a time. Subsequently, the plate was incubated for 5 min at room temperature (RT). […] Just before the reading, 20 µL assay buffer containing 2× Renilla luciferase substrate (coelenterazine) was added. For the FIMM screening, sample wells were read on a PHERAstar plate reader (BMG LABTECH) at a gain level of 4000, after 10 s shaking, using a hypomorph of NRL-Hsp90. For the subsequent validations of the compounds, sample wells with the above-described assay constructs were read using a synergy H1 Hybrid Multi-Mode reader (BioTek) in the luminescence detection mode, as described previously in detail.

N-Hsp90/Cdc37 = biological target: T1, N-Hsp90/Cdc37 (Homo sapiens, UniProt P07900); experiment: N-Hsp90/Cdc37 split Renilla luciferase assay (N-terminal Hsp90 fragment, residues 1-223); format: biochemical; details: cell lysate
T1 construct: only the N-terminal ATP-ase domain of Hsp90 (N-Hsp90, residues 1-223); expressed in transfected cells; host or cells: HEK293 EBNA cells, cleared lysates
Description: as §2

Hsp90/Cdc37 [2] = biological target: T2, Hsp90/Cdc37 (Homo sapiens, UniProt P07900); experiment: Hsp90/Cdc37 split Renilla luciferase assay, full length Hsp90 (cell lysate; IC50 and 20 μM validation); format: biochemical; details: for normalized RLU / Average RLU: MolPort Screening-3, tested concentration of drugs 20 μM; for normalized RLU: RLU normalized to DMSO (=1.00); for Average RLU: average of 3 wells (DMSO 248028); for IC50: full length Hsp90, split Renilla luciferase assay, cell lysate
T2 construct: The Hsp90/Cdc37 split Renilla luciferase assay using the full length Hsp90 for the compound screening was described previously; expressed in transfected cells; host or cells: HEK293 EBNA cells, cleared lysates
Description: as §1, §2

Hsp90, Hsp70 = experiment: Western blotting of Hsp90 and Hsp70 (heat shock response); format: cell-based; details: Western blot, 24 h; four cancer cell lines; 17-AAG 2 μM
Description: The cells in the RIPA buffer were placed on ice for 20 min, and were then sonicated in ice cold water for 5 min. […] Equal amounts of protein were separated by 10% SDS-PAGE, and were then transferred onto a nitrocellulose membrane (cat. no. NBA 083C001EA, Protran) using a wet transfer system (Bio-Rad) or semidry Transferblot Turbo Transfer System (Bio-Rad). After the transfer, the membranes were blocked for 30 min in 5% skimmed milk dissolved in 1× TBST, and then incubated with 1:2000 primary antibodies in 5% BSA in TBST at 4 °C overnight.
The next day, the membranes were washed three times in TBST for 10 min, and then incubated with secondary antibodies (1:5000) diluted in 5% skimmed milk in TBST for 1 h at RT. […] All of the antigens and molecular weights in kDa are labelled next to the blots on the figures. Uncropped Western blot data are attached as Figure S6.

MCF 10A cells = experiment: 2D cell proliferation (alamarBlue); format: cell-based; details: Homo sapiens, 72 h
Description: (§3) Per well, 500–700 cells were seeded in 96-well flat bottom culture plates in 100 µL. After 24 h, the cells were treated with 0.1% DMSO vehicle control or test compounds diluted in a medium using a 1:2 dilution-series, starting at 100 µM. The plates were further incubated for 72 h. The cell viability was measured after the addition of 10% alamarBlue reagent per well (cat. no. DAL1100, Thermo Fisher Scientific). The fluorescence intensity (excitation 560 nm and emission 590 nm) was measured after 4 h by the use of a H1 Hybrid Multi-Mode reader.

HEK293 EBNA cells = experiment: 2D cell proliferation (alamarBlue); format: cell-based; details: Homo sapiens, 72 h
Description: as §3

MIA PaCa-2 cells [3] = experiment: 2D cell proliferation (alamarBlue); format: cell-based; details: Homo sapiens; MIA PaCa-2 (pancreas), 72 h
Description: as §3

HCC-44 cells [4] = experiment: 2D cell proliferation (alamarBlue); format: cell-based; details: Homo sapiens, HCC44; HCC-44 (lung, G12C), 72 h
Description: as §3

SK-BR-3 cells [5] = experiment: 2D cell proliferation (alamarBlue); format: cell-based; details: Homo sapiens; SK-BR-3 (breast, n.a.), 72 h
Description: as §3

MDA-MB-231 cells = experiment: Tumorosphere assay (low adhesion, serum-free 3D spheroid culture); format: cell-based; details: Homo sapiens, MDA-MB-231, 72 h; read-out: 3D spheroid formation IC50
Description: (§4) Per well, 2000 cells were seeded in flat bottom 96-well suspension culture plates (cat. no. 655185, Cellstar, Greiner Bio-One) in 100 µL DMEM or RPMI media containing 1× B27 (cat. no. 17504044, Gibco, Thermo Fisher Scientific), 25 ng/mL EGF (cat. no. E9644, Sigma-Aldrich), and 25 ng/mL FGF (cat. no. RP-8628, Thermo Fisher Scientific), 20% MethoCult H4100 (cat. no. 04100, […] Technologies). After 2 days, 50 µL media containing 0.3% DMSO or 3× the concentration of the indicated compounds were added to the wells in a 1:2 dilution-series, starting at 100 µM. After 72 h of treatment, 10% (v/v) alamarBlue reagent (cat. no. DAL1100, Thermo Fisher Scientific) was added to each well. Then, the fluorescence intensity (excitation 560 nm and emission 590 nm) was measured after 4 h using a H1 Hybrid Multi-Mode reader (BioTek).

MIA PaCa-2 cells [6] = experiment: as above; format: cell-based; details: Homo sapiens; MIA PaCa-2 (pancreas), low attachment, serum-free, 72 h; read-out: 3D spheroid formation IC50
Description: as §4

HCC-44 cells [7] = experiment: as above; format: cell-based; details: Homo sapiens, HCC44; HCC-44 (lung, G12C), low attachment, serum-free, 72 h; read-out: 3D spheroid formation IC50
Description: as §4

SK-BR-3 cells [8] = experiment: as above; format: cell-based; details: Homo sapiens; SK-BR-3 (breast, n.a.), low attachment, serum-free, 72 h; read-out: 3D spheroid formation IC50
Description: as §4

Row | Structure (SMILES) | normalized RLU (FIMM Screening-1) (Hsp90/Cdc37 [1]; DMSO = 1.00) | normalized RLU (FIMM Screening-2, scaffold based) (Hsp90/Cdc37 [1]; DMSO = 1.00) | Average RLU (FIMM Screening-1) (Hsp90/Cdc37 [1]; mean of 3 wells) [RLU] | Average RLU (FIMM Screening-2, scaffold based) (Hsp90/Cdc37 [1]; mean of 3 wells, DMSO 51006) [RLU] | IC50 (N-Hsp90/Cdc37) [µM] | normalized RLU (Hsp90/Cdc37 [2]) | Average RLU (Hsp90/Cdc37 [2]) [RLU] | IC50 (Hsp90/Cdc37 [2]) [µM] | induction of Hsp90 or Hsp70 expression (heat shock response) (Hsp90, Hsp70) | IC50 (MCF 10A cells) [µM] | IC50 (HEK293 EBNA cells) [µM] | IC50 (MIA PaCa-2 cells [3]) [µM] | IC50 (HCC-44 cells [4]) [µM] | IC50 (SK-BR-3 cells [5]) [µM] | IC50 (MDA-MB-231 cells) [µM] | IC50 (MIA PaCa-2 cells [6]) [µM] | IC50 (HCC-44 cells [7]) [µM] | IC50 (SK-BR-3 cells [8]) [µM]
1 | C/C1=C\[C@H](C)C[C@H](C)[C@H](Cc2cnco2)OC(=O)/C(C)=C/[C@H](C)C[C@H](C)[C@H](Cc2cnco2)OC1=O [conglobatin A, reference compound] | 0.51 | 0.49 | 25349 | 25048 | 4.5 ± 0.8 | 0.40 | 98821 | 23 ± 6 | – | – | – | – | – | – | – | – | – | –
2 | CCOc1ccc(C(=O)c2ccc(O)c(O)c2O)cc1 [×1540, 2,3,4-TRIHYDROXY-4'-ETHOXYBENZOPHENONE] | 0.76 | – | 37962 | – | 44 ± 9 | – | – | 44 ± 18 | not inducing | 172 | 89 | 23 ± 2 | 49 ± 6 | 36 ± 3 | 58 ± 5 | 53 ± 6 | 52 ± 6 | 64 ± 5
3 | N=C(CSS(=O)(=O)O)NCC12CC3CC(CC(C3)C1)C2 [×6506, [({N-[(adamantan-1-yl)methyl]carbamimidoyl}methyl)sulfanyl]sulfonic acid] | – | – | – | – | 4.1 ± 0.4 | 0.11 | 26657 | 5 ± 1 | not inducing | 64 | 47 | 25 ± 2 | 28 ± 4 | 36 ± 4 | 26 ± 1 | 30 ± 3 | 67 ± 5 | 36 ± 4
